For experiment [1], the system named is Meloidogyne incognita. Nature of the experiment: Nematicidal activity against second-stage juvenile Meloidogyne incognita (root-knot nematode) infested tomato plant under greenhouse condition assessed as plant height at 8 kg/hectare measured after 30 days. The class given is functional.
Experiment [2] concerns Meloidogyne incognita. Nature of the experiment: Nematicidal activity against second-stage juvenile Meloidogyne incognita (root-knot nematode) infested tomato field assessed as reduction in number of nematodes in soil at 8 kg/hectare measured after 20 days. The class given is functional, organism-based.
In experiment [3] the test system is Meloidogyne incognita. Nature of the experiment: Nematicidal activity against second-stage juvenile Meloidogyne incognita (root-knot nematode) infested tomato field assessed as large fruit yield at 8 kg/hectare. The format is functional.
Experiment [4] deals with Meloidogyne incognita. Nature of the experiment: Nematicidal activity against second-stage juvenile Meloidogyne incognita (root-knot nematode) infested tomato field assessed as reduction in number of nematodes in soil at 8 kg/hectare measured after 40 days. The format is functional, organism-based.
Experiment [5] concerns Meloidogyne incognita. Nature of the experiment: Nematicidal activity against second-stage juvenile Meloidogyne incognita (root-knot nematode) infested tomato plant under greenhouse condition assessed as plant vigour at 8 kg/hectare measured after 30 days. The class given is functional.
The subject of experiment [6] is Meloidogyne incognita. As to the kind of experiment: Nematicidal activity against second-stage juvenile Meloidogyne incognita (root-knot nematode) infested tomato field assessed as reduction in number of nematodes in soil at 8 kg/hectare measured after 60 days. The class given is functional, organism-based.
The subject of experiment [7] is Meloidogyne incognita. As to the kind of experiment: Nematicidal activity against second-stage juvenile Meloidogyne incognita (root-knot nematode) infested tomato field assessed as plant height at 8 kg/hectare measured after 30 days. The format is functional.
Experiment [8] has as its system Meloidogyne incognita. As to the kind of experiment: Nematicidal activity against second-stage juvenile Meloidogyne incognita (root-knot nematode) assessed as mortality after 48 hr. The class given is functional.
The subject of experiment [9] is Meloidogyne incognita. Nature of the experiment: Nematicidal activity against second-stage juvenile Meloidogyne incognita (root-knot nematode) infested tomato field assessed as reduction in root galling index at 8 kg/hectare measured after 30 days. The format is functional, organism-based.
In experiment [10] the test system is Meloidogyne incognita. Nature of the experiment: Nematicidal activity against second-stage juvenile Meloidogyne incognita (root-knot nematode) infested tomato field assessed as medium fruit yield at 8 kg/hectare. The format is functional.
The test system of experiment [11] is Meloidogyne incognita. Nature of the experiment: Nematicidal activity against second-stage juvenile Meloidogyne incognita (root-knot nematode) infested tomato field assessed as extra-large fruit yield at 8 kg/hectare. The class given is functional.
For experiment [12], the system named is Meloidogyne incognita. Nature of the experiment: Nematicidal activity against second-stage juvenile Meloidogyne incognita (root-knot nematode) infested tomato plant under greenhouse condition assessed as reduction in root galling index at 8 kg/hectare measured after 30 days. The class given is functional, organism-based.
Experiment [13] concerns Meloidogyne incognita. As to the kind of experiment: Nematicidal activity against second-stage juvenile Meloidogyne incognita (root-knot nematode) infested tomato field assessed as plant vigour at 8 kg/hectare measured after 30 days. The format is functional.
Experiment [14] deals with Meloidogyne incognita. Nature of the experiment: Nematicidal activity against second-stage juvenile Meloidogyne incognita (root-knot nematode) infested tomato field assessed as plant height at 8 kg/hectare measured after 50 days. The class given is functional.
For experiment [15], the system named is Meloidogyne incognita. As to the kind of experiment: Nematicidal activity against second-stage juvenile Meloidogyne incognita (root-knot nematode) infested tomato plant under greenhouse condition assessed as fresh root weight at 8 kg/hectare measured after 30 days. The format is functional.
The test system of experiment [16] is Meloidogyne incognita. Nature of the experiment: Nematicidal activity against second-stage juvenile Meloidogyne incognita (root-knot nematode) infested tomato field assessed as marketable yield at 8 kg/hectare. The format is functional.

Active and inactive are the calls of the source. The rule behind the calls is not given here.

From ChEMBL document CHEMBL3045788, “Effect of abamectin on root-knot nematodes and tomato yield” (Pest Manag Sci, 2012) come the findings set out here.

As to `CCOP(=O)(SC(C)CC)SC(C)CC` (configuration not stated) [CADUSAFOS], the Activity is 39.2 cm in [1]; 19.9% in experiment [3]; 91% in experiment [5]; 38.6 cm in [7]; 41.6% in experiment [10]; 7.2% in experiment [11]. Further, the Activity was determined as 90% in [13], 101.8 cm in experiment [14], 1.13 g in experiment [15] and 68.7% in experiment [16]. Further, the outcome in experiment [2], in experiment [4], in experiment [6], in experiment [9] and in [12] was Active. For the same compound, the LC50 in [8] was 13.43 mgAi/L. Moreover, in experiment [8], the LC90 was determined as 50.34 mgAi/L.
